Source: patent US11452731B2, “Method of treating and preventing loss of cognition” (ENDORECHERCHE, INC., priority 2009, dated 2022)
Values joined by “and” are separate entries in the source; they are usually repeats but may differ in a detail not shown here. Identical values can stand only once.

Assay: Clinical trial ERC-205: DHEA 50 mg daily versus placebo on hot flushes in postmenopausal women (Example 10)
Assay type: in vivo
Conditions: for NUMBER OF MODERATE TO SEVERE HOT FLUSHES PER WEEK (MEAN) / WEIGHTED SEVERITY SCORE OF HOT FLUSHES PER WEEK (MEAN) / NUMBER OF ALL HOT FLUSHES PER WEEK (MEAN): 50 mg, strata ≥71 hot flushes per week at screening; for Number of all hot flushes per week, MEAN / Number of moderate to severe hot flushes per week, MEAN / Weighted severity score of hot flushes per week, MEAN / Mean change from baseline: Frequency of all HF / Mean change from baseline: Frequency of moderate-severe HF / Mean change from baseline: Weighted severity score of HF: DHEA 50 mg daily; for number of all hot flushes per week: women having more than 70 mild, moderate plus severe hot flushes
Description: Postmenopausal women experiencing moderate or severe hot flushes per week (as determined by a two week diary) were randomized to receive a daily dose of either placebo or 50 mg DHEA. Fifty evaluable participants (25 patients per arm) were treated for four months with a daily assessment of hot flushes recorded in a diary completed by each participant.
Postmenopausal women aged 40 to 70 years with moderate or severe hot flushes per week, as confirmed by a two-week screening hot flush diary were enrolled after signing informed consent. The protocol was approved by the Institutional Review Board (IRB) of Le Centre Hospitalier de l'Université Laval and by Health Canada.
The primary endpoint was the change from Baseline in the weekly frequency of moderate to severe hot flushes at Week 16, after four months of treatment. The objectives also included the change from Baseline in the weekly frequency of all hot flushes and the change from Baseline in the weekly weighted severity score.
The response endpoint is the patient's paper diary which was filled in daily to specify the number and type of hot flushes as follows:
The hot flush diary began as a Screening diary for two weeks prior to randomization whereby patients had to complete the diary daily, recording the number and severity of hot flushes. The patients had to record an average of 50 or more moderate or severe hot flushes per week over the two-week period to be eligible (i.e., at least 100 hot flushes documented on the two week Screening diary).
Once randomized, the patient completed eight, two-week hot flush diaries upon beginning study medication. The diaries had to be filled out on a daily basis. The first diary was completed over the first two weeks and be returned on the two week visit. The second two-week diary was completed over the next two weeks of the first four week treatment period and was returned at the four week visit. At 4, 8, 12 and 16 week visits, two two-week diaries for hot flushes were collected.

[1] = Screening (mean of 2 w), baseline
[2] = women having 71 or more hot flushes per week at screening
[3] = women having between 50 and 70 per week

For `C[C@]12CC[C@H](O)CC1=CC[C@@H]1[C@@H]2CC[C@]2(C)C(=O)CC[C@@H]12` [DHEA, dehydroepiandrosterone], the “NUMBER OF MODERATE TO SEVERE HOT FLUSHES PER WEEK (MEAN)” value (Week 14) was 32.0, the “WEIGHTED SEVERITY SCORE OF HOT FLUSHES PER WEEK (MEAN)” value (Week 14) was 96.6 and the “NUMBER OF ALL HOT FLUSHES PER WEEK (MEAN)” value (Week 15) was 38.8. For the same compound, the “NUMBER OF MODERATE TO SEVERE HOT FLUSHES PER WEEK (MEAN)” value (Week 15) was 34.4, the “WEIGHTED SEVERITY SCORE OF HOT FLUSHES PER WEEK (MEAN)” value (Week 15) was 103.6 and the “NUMBER OF ALL HOT FLUSHES PER WEEK (MEAN)” value (Week 16) was 36.3. For the same compound, the “NUMBER OF MODERATE TO SEVERE HOT FLUSHES PER WEEK (MEAN)” value (Week 16) was 31.6, the “WEIGHTED SEVERITY SCORE OF HOT FLUSHES PER WEEK (MEAN)” value (Week 16) was 95.2 and the “Number of all hot flushes per week, MEAN” value [1] was 75.5±4.4 and 75.7. The “Number of moderate to severe hot flushes per week, MEAN” value (“Number of moderate … per week, MEAN” for short) [1] was 70.7±4.5 and 70.7, the “Weighted severity score of hot flushes per week, MEAN” value [1] was 187.1±13.9 and 187.1 and the “Number of all hot flushes per week, MEAN” value (Week 1) was 64.2. For the same compound, the “Number of moderate … per week, MEAN” value (Week 1) was 58.6, the “Weighted severity score of hot flushes per week, MEAN” value (Week 1) was 156.0 and the “Number of all hot flushes per week, MEAN” value (Week 2) was 56.4. For the same compound, the “Number of moderate … per week, MEAN” value (Week 2) was 51.0, the “Weighted severity score of hot flushes per week, MEAN” value (Week 2) was 137.5 and the “Number of all hot flushes per week, MEAN” value (Week 3) was 54.6. The “Number of moderate … per week, MEAN” value (Week 3) was 49.1, the “Weighted severity score of hot flushes per week, MEAN” value (Week 3) was 132.5 and the “Mean change from baseline: Frequency of all HF” value (from here on “Mean change … of all HF”) (Week 4) was −20.4. The “Mean change from baseline: Frequency of moderate-severe HF” value (from here on “Mean change … of moderate-severe HF”) (Week 4) was −20.6, the “Mean change from baseline: Weighted severity score of HF” value (from here on “Mean change from baseline … of HF”) (Week 4) was −51.4 and the “Number of all hot flushes per week, MEAN” value (Week 4) was 55.3±5.8 and 55.3. For the same compound, the “Number of moderate … per week, MEAN” value (Week 4) was 50.1±5.7 and 50.1, the “Weighted severity score of hot flushes per week, MEAN” value (Week 4) was 135.7 and the “Number of all hot flushes per week, MEAN” value (Week 5) was 49.8. The “Number of moderate … per week, MEAN” value (Week 5) was 44.4, the “Weighted severity score of hot flushes per week, MEAN” value (Week 5) was 120.9 and the “Number of all hot flushes per week, MEAN” value (Week 6) was 47.9. For the same compound, the “Number of moderate … per week, MEAN” value (Week 6) was 43.0, the “Weighted severity score of hot flushes per week, MEAN” value (Week 6) was 115.2 and the “Number of all hot flushes per week, MEAN” value (Week 7) was 44.5. The “Number of moderate … per week, MEAN” value (Week 7) was 39.6, the “Weighted severity score of hot flushes per week, MEAN” value (Week 7) was 108.3 and the “Mean change … of all HF” value (Week 8) was −31.0. For the same compound, the “Mean change … of moderate-severe HF” value (Week 8) was −30.1, the “Mean change from baseline … of HF” value (Week 8) was −76.9 and the “Number of all hot flushes per week, MEAN” value (Week 8) was 44.7±6.3 and 44.7. The “Number of moderate … per week, MEAN” value (Week 8) was 40.2±6.1 and 40.2, the “Weighted severity score of hot flushes per week, MEAN” value (Week 8) was 109.4 and the “Number of all hot flushes per week, MEAN” value (Week 9) was 44.3. The “Number of moderate … per week, MEAN” value (Week 9) was 39.6, the “Weighted severity score of hot flushes per week, MEAN” value (Week 9) was 106.5 and the “Number of all hot flushes per week, MEAN” value (Week 10) was 43.1. For the same compound, the “Number of moderate … per week, MEAN” value (Week 10) was 38.6, the “Weighted severity score of hot flushes per week, MEAN” value (Week 10) was 104.5 and the “Number of all hot flushes per week, MEAN” value (Week 11) was 40.9. The “Number of moderate … per week, MEAN” value (Week 11) was 36.0, the “Weighted severity score of hot flushes per week, MEAN” value (Week 11) was 98.2 and the “Mean change … of all HF” value (Week 12) was −36.2. The “Mean change … of moderate-severe HF” value (Week 12) was −35.6, the “Mean change from baseline … of HF” value (Week 12) was −93.6 and the “Number of all hot flushes per week, MEAN” value (Week 12) was 39.5±5.9 and 39.5. For the same compound, the “Number of moderate … per week, MEAN” value (Week 12) was 34.7±5.8 and 34.7, the “Weighted severity score of hot flushes per week, MEAN” value (Week 12) was 92.7 and the “Number of all hot flushes per week, MEAN” value (Week 13) was 37.5. For the same compound, the “Number of moderate … per week, MEAN” value (Week 13) was 33.2, the “Weighted severity score of hot flushes per week, MEAN” value (Week 13) was 90.1 and the “Number of all hot flushes per week, MEAN” value (Week 14) was 37.6. The “Number of moderate … per week, MEAN” value (Week 14) was 33.3, the “Weighted severity score of hot flushes per week, MEAN” value (Week 14) was 90.9 and the “Number of all hot flushes per week, MEAN” value (Week 15) was 37.5. For the same compound, the “Number of moderate … per week, MEAN” value (Week 15) was 34.0, the “Weighted severity score of hot flushes per week, MEAN” value (Week 15) was 91.8 and the “Mean change … of all HF” value (Week 16) was −39.8. For the same compound, the “Mean change … of moderate-severe HF” value (Week 16) was −38.1, the “Mean change from baseline … of HF” value (Week 16) was −99.1 and the “Number of all hot flushes per week, MEAN” value (Week 16) was 36.0±5.7 and 36.0. For the same compound, the “Number of moderate … per week, MEAN” value (Week 16) was 32.2±5.8 and 32.2, the “Weighted severity score of hot flushes per week, MEAN” value (Week 16) was 87.2±15.8 and 87.2 and the “reduction of the weighted severity score” value (all women, week 16 (Table 18)) was 99.1±15.6. For the same compound, the “decrease in weighted severity score” value (at 16 weeks) was 53.4%, the “higher efficacy of DHEA than placebo on weighted severity score” value (at 16 weeks) was 3.0 fold and the “decrease in frequency of all hot flushes” value (screening to week 16) was 52.4%. For the same compound, the “decrease in number of moderate to severe hot flushes” value (screening to week 16) was 54.5%, the “decrease in moderate to severe hot flushes” value [2] was 64.3% and the “greater inhibition by DHEA than placebo” value [2] was 65%. The “mean number of moderate to severe hot flushes per week” value (women having 71 or more hot flushes per week at screening, after DHEA treatment) was 31.6±11.6, the “mean number of moderate to severe hot flushes per week” value (women having 71 or more hot flushes per week at screening, screening value) was 88.5±7.1 and the “decrease in weighted severity score” value (women having between 50 and 70 hot flushes per week) was 43.5%. For the same compound, the weighted severity score (women having between 50 and 70 hot flushes per week, screening) was 144.3±6.7, the weighted severity score (women having between 50 and 70 hot flushes per week, week 16) was 81.6±13.6 and the “decrease in moderate to severe hot flushes” value [3] was 43.3%. For the same compound, the “inhibition by DHEA over the placebo effect” value [3] was 43%, the “number of moderate to severe hot flushes per week” value (women having between 50 and 70 per week, prescreening) was 56.7±1.3 and the “number of moderate to severe hot flushes per week” value (women having between 50 and 70 per week, week 6 as printed) was 32.7±6.2. For the same compound, the “decrease in number of all hot flushes” value (women having more than 70 hot flushes) was 60%, the “decrease in weighted severity score” value (women having more than 70 hot flushes per week) was 61.6% and the weighted severity score (women having more than 70 hot flushes per week, screening) was 241.6±21.1. For the same compound, the weighted severity score (women having more than 70 hot flushes per week, week 16) was 95.2±34.3, the “number of all hot flushes per week” value (prescreening) was 91.0±7.0 and the “number of all hot flushes per week” value (week 16) was 36.3±11.5. For the same compound, the “greater efficacy of DHEA than placebo” value (women having the largest number of hot flushes of all degrees of severity) was 50%.
